Legend:
[1] = EPA (USA) and EEA (UE); cited from earlier work
[2] = tested on: cheloid; assay: Cheloid therapy on wounds in the distal part of horse's limb; assay type: in vivo, horses; conditions: composition versus Salicylic acid therapy
Excerpt: Cheloid is a disturbance of the granulation tissue due to a hyperproliferation of the fibroblasts. These cells stop the mitogenic activity when enough extracellular matrix fills the wound crater. Collagen fibrils of the matrix start to retract anchoring the wounds edges to fibroblasts. When the collagen fibrils start to retract, fibroblasts stop to secrete the matrix (antimitogenic effect). Most of them undergo apoptosis (cell death without inducing an inflammatory reaction) and quiescence (sleeping fibroblasts), while only a small part undergo the transformation into myofibroblasts (which play a role in the last phases of the wound healing). Newly formed capillary vessels are absorbed and disappear in synchrony with the fibroblasts. Keratinocytes on the top of the healed area start to re-epithelialize the area and the process is complete: In horse, researchers have identified two orders of problems responsible for the high incidence of cheloid pathology: 1) exaggerated tension stimuli at the levels of the distal part of the horses legs, due too scarcity of muscle mass and hypodermal fat and 2) slow capacity of the keratinocytes to obtain the re-epithelialization of the granulated area maybe due to a scarcity of the signals responsible for the antimitogenic effects on fibroblasts. […]

Structure (SMILES) | class of toxicity [1] | time of healing / effectiveness in comparison of therapies [2]
C/C=C(\C)C(=O)O[C@H]1C[C@@H](OC(C)=O)[C@@]2(C(=O)OC)CO[C@H]3[C@@H](O)[C@@](C)([C@]45O[C@@]4(C)[C@@H]4C[C@H]5O[C@@H]5OC=C[C@@]54O)[C@H]4[C@]1(CO[C@]4(O)C(=O)OC)[C@@H]32 [Azadirachtin A] | IVth | 
O=C(O)c1ccccc1O [Salicylic acid, salicylic acid] |  | not as effective as the therapy with the present composition

Reference: patent US11376298B2, “Composition comprising natural substances having healing, repellent and biocidal properties for the treatment and the cure of external wounds” (priority 2004, dated 2022)
